Earlier results as cited in US20100279989A1, “ORAL CONTRACEPTION WITH TRIMEGESTONE” (GRÜNENTHAL GMBH, priority 2005, published 2010).

Tested on: ovulation
Conditions: p.o.

**Q.** Which ovulation inhibition dose does the source give for `C[C@H](O)C(=O)[C@@]1(C)CC[C@H]2[C@@H]3CCC4=CC(=O)CCC4=C3CC[C@@]21C` [trimegestone, 17β-[(S)-2-hydroxypropanoyl]-17α-methyl-estra-4,9-dien-3-one] here?
**A.** 0.5 mg per day
